The numbers were not newly measured in article PMC11359394 (Pharmaceutics, 2024), which cites them from elsewhere.

In data set [1] the test system is CYP2C8 and CYP3A4 isoenzymes.
On the set-up of data set [2]: method as in US FDA GRAS Notices. The following applies: rats, dietary consumption; ref US FDA GRAS Notices.

Regarding `CC(=O)O[C@H]1C(=O)[C@@]2(C)[C@H]([C@H](OC(=O)c3ccccc3)[C@]3(O)C[C@H](OC(=O)[C@H](O)[C@@H](NC(=O)c4ccccc4)c4ccccc4)C(C)=C1C3(C)C)[C@]1(OC(C)=O)CO[C@@H]1C[C@@H]2O` [Paclitaxel], the “solubility increase by exploiting the polymorphs” value was 60 fold. The “fraction metabolized in the liver by CYP P450” value in data set [1] is on record as “Approximately 90%”.

For the molecule `C=C1C[C@@]23CC[C@H]4[C@@](C)(CCC[C@@]4(C)C(=O)O[C@@H]4O[C@H](CO)[C@@H](O)[C@H](O)[C@H]4O)[C@@H]2CC[C@]1(O[C@@H]1O[C@H](CO)[C@@H](O)[C@H](O)[C@H]1O)C3` [RUB, Rubusoside], the “dietary dose with no adverse effects” value in data set [2] is listed as “up to 2 g/kg”.
